Holding throughout (assay type): binding
In one assay the target is T1, BDKRB1 (Homo sapiens, UniProt P46663).
T1 construct: purchased Promega (in-house HiBiT-GPCR construct library, NanoBRET)
T1 sequence (P46663 1-353): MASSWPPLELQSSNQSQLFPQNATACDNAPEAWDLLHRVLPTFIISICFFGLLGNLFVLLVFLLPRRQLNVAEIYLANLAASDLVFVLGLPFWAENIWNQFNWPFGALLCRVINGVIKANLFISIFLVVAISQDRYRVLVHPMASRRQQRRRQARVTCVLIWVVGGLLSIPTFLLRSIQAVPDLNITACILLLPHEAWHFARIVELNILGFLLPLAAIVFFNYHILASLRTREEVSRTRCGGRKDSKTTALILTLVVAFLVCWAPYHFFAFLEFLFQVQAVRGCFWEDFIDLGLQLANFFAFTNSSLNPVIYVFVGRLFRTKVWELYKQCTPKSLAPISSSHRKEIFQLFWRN
In words: NanoBRET screen HiBiT-BDKRB1 in HEK293. How it is done:
(§1) Each tracer candidate was screened across the entire library of HiBiT-GPCR constructs using NanoBRET as the detection modality. As depicted in Figure 4A, the specificity of interactions was evaluated through decrease in BRET due to competitive displacement of a bound tracer by excess parental compound. Each tracer was analyzed for binding to each HiBiT-GPCR fusion in the absence and in the presence of competing parental compound. Briefly, HEK293 cells were transfected with HiBiT-GPCR constructs diluted into promoterless DNA to reduce expression and maximize translocation to the cell surface. Each tracer candidate was then screened at concentrations of 1 μM and 0.1 μM across cells expressing these fusions. Cells were treated for 1.5 h with tracer either alone or in the presence of 20 μM competing parental compound (i.e., control). BRET was measured upon addition of purified LgBiT and subsequent complementation with HiBiT genetically fused to a GPCR. The specificity of interactions was assessed through a decrease in BRET signal due to competitive displacement of the bound tracer. To further gauge the robustness of these interactions, the fold response over the control (i.e., BRETtracer/BRETcontrol) was calculated. We chose a 1.5-fold response, which translates to ≥7-fold signal over noise as the minimal threshold required to score an interaction as positive. […]. Below we highlight the screening results obtained for our exemplary fluorescent tracers based on Clozapine, Amitriptyline and AZD1283.
(§2) HiBiT-GPCR DNA constructs were diluted in 10 mM Tris pH 8 to a final concentration of 0.01 μg/μL, arrayed in 96-well plates and stored at −20 °C. For transfection, HEK293 cells were suspended in Opti-MEM (without phenol red) supplemented with 2% fetal bovine serum (Seradigm) and 100 units/mL penicillin–streptomycin (Gibco) at a final concentration of 220,000 cells/mL and dispensed into white 96-well plates at 90 μL/well. Subsequent transfections and screens were carried using an Agilent Bravo Automated Liquid Handling Platform. First, the 96-well HiBiT DNA arrays were diluted 25-fold in Opti-MEM (without serum or phenol red) to a final concentration of 0.0004 μg/μL and 20 μL of the diluted DNAs were transferred into new 96-well plates. Next, promoterless carrier DNA (1 μg/μL) was diluted 25-fold (0.04 μg/μL) and then dispensed into the diluted arrays at 20 μL/well. Following brief mixing, Viafect transfection reagent (Promega) diluted 16-fold into Opti-MEM was dispensed into the plates at 40 μL/well. After mixing by pipetting, plates were incubated for 10 min on the pipetting station deck. The DNA-transfection reagent complexes were then added to plates containing cells. To facilitate the screen, 10 μL of DNA-transfection reagent complexes were added in duplicates to the top 4 and bottom 4 rows, resulting in two identical 48-well arrays per plate. Plates with transfected cells were incubated for 18–20 h at 37 °C/5% CO2. A screen of each tracer across the entire library using two different concentrations requires duplicate plates of transfected cells. Depending on the number of tracers being screened, transfections can be scaled up using the same ratios. The next day, for each tracer, four 20× screening solutions in tracer dilution buffer (Promega) were prepared: two duplicates at final concentration of 20 μM and two duplicates at a final concentration of 2 μM. A competing unmodified compound was added to one of each duplicate at a final concentration of 400 μM. The four resulting solutions were diluted 4-fold in Opti-MEM without serum or phenol red to generate 5× solutions (5 µM and 0.5 µM tracer +/− 100 μM competing compound). To screen the library, a BioTek MultiFlo FX liquid dispenser was used to dispense 22.5 µL of tracer solution to the top 4 rows and 22.5 µL tracer + competing compound solution to the 4 bottom rows. Plates were briefly mixed on an orbital shaker and incubated for 1.5 h at room temperature. […]
For orientation: In BRET a luciferase serves as donor, and the signal depends on an acceptor being close.

The target in a further assay is T2, ADORA3 (Homo sapiens, UniProt P0DMS8).
T2 construct: purchased Promega (in-house HiBiT-GPCR construct library, NanoBRET)
T2 sequence (P0DMS8 1-318): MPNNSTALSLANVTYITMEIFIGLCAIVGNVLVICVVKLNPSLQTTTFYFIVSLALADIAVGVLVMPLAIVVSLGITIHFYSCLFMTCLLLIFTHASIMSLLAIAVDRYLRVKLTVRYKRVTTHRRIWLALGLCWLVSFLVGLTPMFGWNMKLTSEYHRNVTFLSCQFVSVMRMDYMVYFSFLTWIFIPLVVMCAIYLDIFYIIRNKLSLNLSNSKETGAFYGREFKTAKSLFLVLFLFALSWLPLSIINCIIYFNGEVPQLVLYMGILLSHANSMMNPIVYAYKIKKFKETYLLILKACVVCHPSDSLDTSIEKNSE
In words: NanoBRET screen HiBiT-ADORA3 in HEK293. As to the method:
as §1, §2

A further assay has as its target T3, MC4R (Homo sapiens, UniProt P32245).
T3 construct: purchased Promega (in-house HiBiT-GPCR construct library, NanoBRET)
In words: NanoBRET screen HiBiT-MC4R in HEK293. How it is done: as §1, §2

T3 sequence (P32245 whole entry): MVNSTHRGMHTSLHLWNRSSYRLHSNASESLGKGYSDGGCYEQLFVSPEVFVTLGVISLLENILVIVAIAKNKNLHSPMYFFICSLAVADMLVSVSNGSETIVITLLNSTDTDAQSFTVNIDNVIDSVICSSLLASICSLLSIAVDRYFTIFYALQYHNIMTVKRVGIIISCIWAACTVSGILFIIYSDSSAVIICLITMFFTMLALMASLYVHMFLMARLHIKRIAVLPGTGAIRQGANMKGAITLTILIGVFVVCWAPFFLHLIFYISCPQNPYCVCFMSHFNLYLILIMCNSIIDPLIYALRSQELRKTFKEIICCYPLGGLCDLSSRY

As for `COc1ccc2c(n1)c(CCNC(C)=O)cn2CCNC(=O)CCc1ccc2n1[B-](F)(F)[N+]1=C(c3ccc[nH]3)C=CC1=C2` [Azamelatonin-1-NB590], the “NanoBRET Fold Response” value at BDKRB1 (0.1μM tracer) was found to be 1.39; at BDKRB1 (1μM tracer), 0.74; on ADORA3 (0.1μM tracer), 1.01; on ADORA3 (1μM tracer), 1.02; on MC4R (0.1μM tracer), 0.87; on MC4R (1μM tracer), 1.03.

With `CC(C)N(CC[C@H](c1ccccc1)c1cc(CCNC(=O)c2ccc(CNC(=O)CCc3ccc4n3[B-](F)(F)[N+]3=C(c5ccc[nH]5)C=CC3=C4)cc2)ccc1O)C(C)C` [Tolterodine-BZ-NB590], the “NanoBRET Fold Response” value on BDKRB1 (BDKRB1, tracer 0.1μM) is on record as 1.02; on BDKRB1 (BDKRB1, tracer 1μM) it was 0.85; at ADORA3 (ADORA3, tracer 0.1μM), 0.58; on ADORA3 (ADORA3, tracer 1μM), 0.71; at MC4R (MC4R, tracer 0.1μM), 1.00; at MC4R (MC4R, tracer 1μM), 1.01.

Consider `O=C(CCc1ccc2n1[B-](F)(F)[N+]1=C(c3ccc[nH]3)C=CC1=C2)NCCOCCOCCNC(=O)OCCOCCN1CCN(C2=Nc3ccccc3Sc3ccccc32)CC1` [Quetiapine-a-2-NB590], for which the “NanoBRET Fold Response” value on BDKRB1 (BDKRB1, tracer 0.1μM) amounted to 1.42; on BDKRB1 (BDKRB1, tracer 1μM), 0.65; at ADORA3 (ADORA3, tracer 0.1μM) it was 0.98; on ADORA3 (ADORA3, tracer 1μM), 0.82; on MC4R (MC4R, tracer 0.1μM) it was 0.97; on MC4R (MC4R, tracer 1μM), 1.06.

Take `Cc1cc2c(s1)Nc1ccccc1N=C2N1CCN(CCCNC(=O)CCOCCOCCOCCOCCNC(=O)CCc2ccc3n2[B-](F)(F)[N+]2=C(c4ccc[nH]4)C=CC2=C3)CC1` [Olanzapine-a-2-NB590]: the “NanoBRET Fold Response” value at BDKRB1 (BDKRB1, tracer 0.1μM) amounted to 0.83; on BDKRB1 (BDKRB1, tracer 1μM), 1.10; at ADORA3 (ADORA3, tracer 0.1μM), 0.94; at ADORA3 (ADORA3, tracer 1μM), 1.13; at MC4R (MC4R, tracer 0.1μM), 1.00; at MC4R (MC4R, tracer 1μM), 1.07.

For the compound `O=C(CCc1ccc2n1[B-](F)(F)[N+]1=C(c3ccc[nH]3)C=CC1=C2)NCc1ccc(C(=O)NCCOCCOCCNCC(O)COc2cccc3ccccc23)cc1` (centres unmarked) [Propranolol-3-NB590], the “NanoBRET Fold Response” value was found to be 0.95 on BDKRB1 (BDKRB1, 0.1μM); 0.97 on BDKRB1 (BDKRB1, 1μM); 1.04 on ADORA3 (ADORA3, 0.1μM); 0.98 on ADORA3 (ADORA3, 1μM); 0.98 on MC4R (MC4R, 0.1μM); 0.99 at MC4R (MC4R, 1μM).

Turning to `CN1CCN(C2=Nc3cc(Cl)ccc3N(CC(=O)NCCOCCOCCOCCOCCNC(=O)CCc3ccc4n3[B-](F)(F)[N+]3=C(c5ccc[nH]5)C=CC3=C4)c3ccccc32)CC1` [Clozapine-c-2-NB590], the “NanoBRET Fold Response” value on BDKRB1 (BDKRB1, 0.1μM tracer) was 1.06; on BDKRB1 (BDKRB1, 1μM tracer), 1.07; on ADORA3 (ADORA3, 0.1μM tracer) it was 1.05; at ADORA3 (ADORA3, 1μM tracer), 0.81; at MC4R (MC4R, 0.1μM tracer) it was 1.02; on MC4R (MC4R, 1μM tracer), 1.06.

Consider `O=C(CCc1ccc2n1[B-](F)(F)[N+]1=C(c3ccc[nH]3)C=CC1=C2)NCc1ccc(C(=O)NCCOCCC(=O)N[C@@H]2CC[C@@]3(O)[C@H]4Cc5ccc(O)c6c5[C@@]3(CCN4CC3CC3)[C@H]2O6)cc1` [Naltrexone-3-NB590], for which the “NanoBRET Fold Response” value worked out at 1.18 on BDKRB1 (BDKRB1, tracer 0.1μM); 1.03 at BDKRB1 (BDKRB1, tracer 1μM); 0.77 at ADORA3 (ADORA3, tracer 0.1μM); 0.84 at ADORA3 (ADORA3, tracer 1μM); 1.06 on MC4R (MC4R, tracer 0.1μM); 1.06 on MC4R (MC4R, tracer 1μM).

For the compound `CC(C)N(CC[C@H](c1ccccc1)c1cc(CCNC(=O)CCOCCOCCOCCOCCNC(=O)CCc2ccc3n2[B-](F)(F)[N+]2=C(c4ccc[nH]4)C=CC2=C3)ccc1O)C(C)C` [Tolterodine-2-NB590], the “NanoBRET Fold Response” value at BDKRB1 (BDKRB1, tracer 0.1μM) turned out to be 0.99; at BDKRB1 (BDKRB1, tracer 1μM), 0.79; at ADORA3 (ADORA3, tracer 0.1μM) it was 1.12; on ADORA3 (ADORA3, tracer 1μM) it was 1.00; on MC4R (MC4R, tracer 0.1μM), 1.07; on MC4R (MC4R, tracer 1μM), 1.00.

With `Cc1nc2n(c(=O)c1CCN1CCC(c3noc4cc(F)ccc34)CC1)CCCC2OC(=O)NCCOCCOCCOCCOCCNC(=O)CCc1ccc2n1[B-](F)(F)[N+]1=C(c3ccc[nH]3)C=CC1=C2` (centres unmarked) [Risperidone-2-NB590], the “NanoBRET Fold Response” value on BDKRB1 (BDKRB1, tracer 0.1μM) was 1.28; on BDKRB1 (BDKRB1, tracer 1μM), 0.77; at ADORA3 (ADORA3, tracer 0.1μM) it was 1.03; on ADORA3 (ADORA3, tracer 1μM), 0.87; on MC4R (MC4R, tracer 0.1μM) it was 1.03; at MC4R (MC4R, tracer 1μM), 1.05.

For the compound `O=C(CCOCCOCCOCCOCCNC(=O)CCc1ccc2n1[B-](F)(F)[N+]1=C(c3ccc[nH]3)C=CC1=C2)NCCCN1CCN(C2=Nc3cc(Cl)ccc3Nc3ccccc32)CC1` [Clozapine-a-2-NB590], the “NanoBRET Fold Response” value on BDKRB1 (BDKRB1, 0.1μM tracer) amounted to 1.02; on BDKRB1 (BDKRB1, 1μM tracer), 1.37; on ADORA3 (ADORA3, 0.1μM tracer), 1.04; on ADORA3 (ADORA3, 1μM tracer), 0.83; at MC4R (MC4R, 0.1μM tracer) it was 1.02; at MC4R (MC4R, 1μM tracer) it was 1.01.

For `COc1ccc2[nH]c(-c3ccc(CNC(=O)CCOCCOCCOCCOCCNC(=O)CCc4ccc5n4[B-](F)(F)[N+]4=C(c6ccc[nH]6)C=CC4=C5)cc3)c(CCNC(C)=O)c2n1` [AzomelatoninICO9-2-NB590], the “NanoBRET Fold Response” value on BDKRB1 (0.1μM tracer) was determined as 1.31; on BDKRB1 (1μM tracer) it was 1.20; on ADORA3 (0.1μM tracer), 0.91; at ADORA3 (1μM tracer), 0.97; on MC4R (0.1μM tracer), 0.92; on MC4R (1μM tracer), 0.98.

For the compound `CN(CCC=C1c2ccccc2CCc2ccccc21)C(=O)CCOCCOCCOCCOCCNC(=O)CCc1ccc2n1[B-](F)(F)[N+]1=C(c3ccc[nH]3)C=CC1=C2` [Amitriptyline-e-2-NB590], on ADORA3 (tracer at 1μM), the “NanoBRET Fold Response” value is 0.99.

Consider `CN(C)CCC=C1c2ccccc2CCc2ccc(C(=O)NCCNC(=O)CCOCCOCCOCCOCCNC(=O)CCc3ccc4n3[B-](F)(F)[N+]3=C(c5ccc[nH]5)C=CC3=C4)cc21` [Amitriptyline-a-2-NB590], for which the “NanoBRET Fold Response” value at BDKRB1 (tracer at 0.1μM) is given as 1.13; at BDKRB1 (tracer at 1μM), 1.04; at ADORA3 (tracer at 0.1μM), 1.00; on ADORA3 (tracer at 1μM) it was 1.07.
